Results on one compound are retold here after patent publication US20240139199A1, “USE OF ADENINE IN PREPARATION OF DRUG FOR TREATING DIABETIC ULCERS” (Energenesis Biomedical Co., Ltd., priority 2021, published 2024).

One experiment relates to COX-2. The experiment can be described thus: COX-2 protein expression (stated finding, no method given). Format: cell-based.
The subject of the next experiment is diabetic ulcers. The experiment is described as follows: double arm, double-blind study of adenine gel in subjects with diabetic ulcers (wound healing). Format: in vivo, human. Here is the method:
The efficacy of adenine and/or a pharmaceutically acceptable salt thereof as a therapeutic agent for diabetic ulcers was evaluated through a double arm, double-blind study as disclosed in the present disclosure. The groups consist of a 0.02% adenine gel group and a placebo group. The basic information of the subjects is shown in Table 1, while the analysis of wound healing rates based on the Wagner-[…] ulcer classification system and initial wound area size is presented in Tables 2 to 4 below, respectively. Similarly, in a double arm, double-blind study as described in Example 1, the present disclosure evaluated the effects of the disclosed adenine and/or a pharmaceutically acceptable salt thereof as a medicament for treating the diabetic ulcers.

The test system of the next experiment is fibroblast. The experiment can be described thus: fibroblast growth inhibition (stated finding, no method given). Type of experiment: cell-based.

As for `Nc1ncnc2nc[nH]c12` [adenine], the “protein expression of COX-2” value with COX-2 is given as “reduce protein expression of COX-2”. In the experiment with diabetic ulcers (Grade 1 and/or Grade 2 ulcers, or wound area 1.5 to 25 square centimeters), the “wound healing effect (in words)” value is “remarkably superior effects in accelerating and enhancing wound healing”. Besides, in the experiment with diabetic ulcers (directly administered to ulcer wounds in diabetic patients), the scar formation result is listed as “scar formation is reduced”. For the same compound, the “onset of wound healing (in words)” value with diabetic ulcers (results from Table 5) was “rapid and effective healing starting from the fourth week”. Moreover, in the experiment on fibroblast, the fibroblast growth result is listed as “inhibit fibroblast growth”.
